Measured values as given in patent US20100304363A1 (E[…] TELECOMM[…] INSTITUTE, priority 2009, published 2010).

Tests used:
[1] = system: M-Type antigen (SARS coronavirus protein antigen, ProSci); assay type: binding
[2] = system: E-type antigen (SARS coronavirus protein antigen, ProSci); assay type: binding

| Substance | M (mean value) [1] | M-Type Ranking [1] | E Value [2] | E-Type Ranking [2] |
| --- | --- | --- | --- | --- |
| Arg-Phe | 0.072 | 21 | 0.183 | 9 |
| Cys-Asp | 0.144 | 3 | 0.326 | 4 |
| Cys-Glu | 0.143 | 4 | 0.356 | 3 |
| Tyr-Trp | 0.063 | 26 | 0.090 | 30 |
| Ser-Cys | 0.087 | 12 | 0.149 | 19 |
| Ser-Glu | 0.073 | 20 | 0.135 | 24 |
| Ile-Met | 0.074 | 18 | 0.139 | 22 |
| Phe-Leu | 0.061 | 27 | 0.198 | 6 |
| Tyr-Gln | 0.069 | 25 | 0.122 | 27 |
| Phe-Met | 0.059 | 29 | 0.190 | 8 |
| Val-Met | 0.094 | 7 | 0.151 | 18 |
| Glu-Ser | 0.111 | 6 | 0.198 | 6 |
| Phe-Tyr | 0.078 | 15 | 0.127 | 26 |
| Phe-Phe | 0.059 | 28 | 0.116 | 29 |
| Trp-Gln | 0.073 | 19 | 0.155 | 15 |
| Phe-Trp | 0.071 | 22 | 0.159 | 14 |
| Val-Ala | 0.077 | 17 | 0.118 | 28 |
| Gln-Trp | 0.093 | 8 | 0.166 | 12 |
| Asp-Ser | 0.087 | 11 | 0.132 | 25 |
| Leu-Val | 0.088 | 10 | 0.147 | 21 |
| Ser-Asp | 0.091 | 9 | 0.136 | 23 |
| Glu-Asp | 0.186 | 1 | 0.552 | 1 |
| Asp-Cys | 0.114 | 5 | 0.238 | 5 |
| Asp-Glu | 0.169 | 2 | 0.520 | 2 |
| Ala-Ile | 0.057 | 30 | 0.154 | 17 |
| Trp-Phe | 0.069 | 23 | 0.148 | 20 |
| Cys-Phe | 0.069 | 24 | 0.165 | 13 |
| Phe-Arg | 0.080 | 13 | 0.167 | 11 |
| Lys-Phe | 0.080 | 14 | 0.154 | 16 |
